According to publication PMC12656566, “Toxicokinetic Characterization of MDM Hydantoin via Stable Metabolite DMH: Population Modeling for Predicting Dermal Formaldehyde Formation” (Toxics, 2025):
Like-named read-outs stand apart in the source and are kept apart here.

Test: Population toxicokinetic modeling of MDMH and DMH plasma data (IV and TD)
Assay type: in vivo
Details: population estimate, rats; for Vd / clearance: male, Sprague-Dawley, rat, plasma, other: intravenous and transdermal data pooled
Protocol: POP-TK modeling was performed to develop a compartment model describing the disposition of MDMH and DMH following different administration routes. Plasma concentration data from all studies were combined for model development.
The compartment model was designed to fit the absorption phase following TD application, disposition kinetics of MDMH and DMH following IV injection. The disposition phase of MDMH was described with a one-compartment model.
For transdermal application, MDMH applied to the skin undergoes simultaneous absorption and metabolic conversion to DMH and formaldehyde. This process was described by a first-order rate constant (ka,met) representing the combined absorption-metabolism kinetics. The parameter Fa,met represents the fraction of applied dose that penetrates the skin and undergoes metabolic conversion, accounting for incomplete absorption.
DMH formed in the skin compartment subsequently undergoes absorption into systemic circulation. This absorption was modeled using a first-order rate constant (ka,DMH) with three transit compartments to describe the delayed appearance of DMH in plasma.
The disposition of MDMH and DMH was assessed using a linear model with a central and one, two, or three peripheral compartments. The model incorporated both skin metabolism and systemic metabolism of MDMH to DMH. Systemic metabolism was described by the […], representing the fraction of eliminated MDMH that is converted to DMH in the central compartment. Molecular weight correction was applied to account for stoichiometric conversion relationships.
The final disposition and elimination compartment model was determined to use one central compartment for MDMH and one central and one peripheral compartment for DMH based on the objective function.
The differential equations for the amounts of MDMH in the central (XCentral,MDMH) compartments and DMH in the central (XCentral,DMH) and peripheral (XPeripheral,DMH) compartments were:(7) dXCentral,MDMH/dt=−CLMDMH·CCentral,MDMH (8) dXCentral,DMH/dt=−CLDMH·CCentral,DMH−CLDDMH·CCentral,DMH+CLDDMH·CPeripheral,DMH+ka,DMH·XTransit3,DMH+(MWDMH/MWMDMH)·CLMDMH·CCentral,MDMH (9) dXPeripheral,DMH/dt=+CLDDMH·CCentral,DMH−CLDDMH·CPeripheral,DMH
CCentral,MDMH and CCentral,DMH represent MDMH and DMH plasma concentrations in respective compartments and CPeripheral,DMH represent DMH concentration in peripheral compartment. CLMDMH and CLDMH were systemic clearance of MDMH and DMH and CLDDMH was distribution clearance.
The plasma concentrations of MDMH and DMH were simultaneously modeled and predicted using POP-TK modeling with the stochastic approximation expectation maximization (SAEM) algorithm in the parallelized Monolix® 2023R1 (Lixoft, Antony, Paris, France) and Berkeley Madonna version 8.3.11 (University of California at Berkeley, Berkeley, CA, USA). An importance sampling SAEM was used for population parameter estimation to describe the between-subject variability (BSV) for each parameter estimate.

SMILES	Vd (Mean (BSV), read-out: Central volume of distribution for DMH (Vc,DMH)) [L]	clearance (Mean (BSV), read-out: Clearance for DMH (CLDMH) (converted)) [mL/min]	Absorption rate constant for DMH into the central compartment from skin (ka,DMH) (Mean (BSV))	Distribution clearance for DMH (CLDDMH) (Mean (BSV))	Peripheral volume of distribution for DMH (Vp,DMH) (Mean (BSV))	absorption rate constant for DMH (ka,DMH) [h⁻¹]	Vd (Mean (BSV), read-out: Central volume of distribution for MDMH (Vc,MDMH)) [L]	clearance (Mean (BSV), read-out: Clearance for MDMH (CLMDMH) (converted)) [mL/min]	Absorption-metabolism rate constant for MDMH in skin (Ka,met) (Mean (BSV))	combined absorption-metabolism rate constant (ka,met) [h⁻¹]
CC1(C)NC(=O)NC1=O [DMH, 5,5-dimethylhydantoin]	0.32	3.17	8.03 (38.33) 1/h	5.73 (71.8) L/h	0.43 (35.86) L	8.03				
CC1(C)C(=O)NC(=O)N1CO [MDMH, 1-(Hydroxymethyl)-5,5-dimethylhydantoin]							1.18	2460	0.31 (6.44) 1/h	0.31
